The text below walks through data of patent US20230089867A1, “CYCLIC PENTAMER COMPOUNDS AS PROPROTEIN CONVERTASE SUBTILISIN/KEXIN TYPE 9 (PCSK9) INHIBITORS FOR THE TREATMENT OF METABOLIC DISORDER” (Novartis AG, priority 2018, published 2023).

Read-outs that look alike come from different tables or passages of the source.

For data set [1] the following is noted: amide bond, 18-membered ring, HATU/HOAt/2,6-lutidine, DCM.
The target in the next data set is human PCSK9 (Homo sapiens, UniProt Q8NBP7). Briefly: PCSK9 ligand binding TR-FRET assay (interference with binding of human PCSK9 to human LDLR). The note with it: for Max % inhibition: PCSK9 FRET assay, efficacy (Amax), 100% = 1 uM unlabeled human PCSK9, 0% = DMSO; for IC50: TR-FRET, human PCSK9 Alexa Fluor 647 / human LDLR extracellular domain-Europium Kryptate, read-out: PCSK9 FRET Assay IC50. In a few lines: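 Threefold compound dilutions were pre-incubated 30 min with PCSK9, after which 4 nM Europium Kryptate-tagged human LDLR ectodomain was added for a further 2 h.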
Chain of human PCSK9 (Q8NBP7 153-692): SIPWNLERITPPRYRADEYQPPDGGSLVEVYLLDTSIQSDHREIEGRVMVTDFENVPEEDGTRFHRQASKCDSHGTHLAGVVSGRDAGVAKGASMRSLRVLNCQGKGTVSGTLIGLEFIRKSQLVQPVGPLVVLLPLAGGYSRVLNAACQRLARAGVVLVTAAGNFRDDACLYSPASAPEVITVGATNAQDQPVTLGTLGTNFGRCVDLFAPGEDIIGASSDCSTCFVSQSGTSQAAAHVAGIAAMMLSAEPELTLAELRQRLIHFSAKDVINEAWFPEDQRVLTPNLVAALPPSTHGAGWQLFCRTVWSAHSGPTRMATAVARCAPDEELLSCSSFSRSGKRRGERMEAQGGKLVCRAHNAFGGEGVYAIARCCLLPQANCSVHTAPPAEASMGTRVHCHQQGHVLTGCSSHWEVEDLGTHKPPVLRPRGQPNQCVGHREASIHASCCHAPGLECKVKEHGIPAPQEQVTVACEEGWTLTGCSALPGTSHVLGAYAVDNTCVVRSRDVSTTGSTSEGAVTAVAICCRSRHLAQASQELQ
Chain of human PCSK9 (Q8NBP7 31-152 partner limits assumed): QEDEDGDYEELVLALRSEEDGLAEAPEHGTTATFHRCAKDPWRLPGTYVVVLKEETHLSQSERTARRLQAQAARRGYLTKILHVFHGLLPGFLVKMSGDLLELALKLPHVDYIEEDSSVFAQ

Compound `COC[C@@H]1NC(=O)[C@H](C)N(Cc2ccc(Cl)cc2Oc2ccc(-c3cnc(CN(C)C)n3C)cc2)C(=O)C[C@@H](Cc2ccccc2)C(=O)N(C)C2CCOCC2NC(=O)C[C@H](Cc2ccc(Cl)cc2)N(C)C1=O` (stereo partly drawn) showed a ring closure, isolated yield in data set [1] (from (3R)-3-benzyl-4-((3-((S)-3-((S)-2-((S)-2-((4-chloro-2-(4-(2-((dimethylamino)methyl)-1-methyl-1H-imidazol-5-yl)phenoxy)benzyl)amino)propanamido)-3-methoxy-N-methylpropanamido)-4-(4-chloro phenyl)butanamido)tetrahydro-2H-pyran-4-yl)(methyl)amino)-4-oxobutanoic acid, 45.0 °C) of 17%.

In data set [1] (from (R)-3-Benzyl-4-(((1S,2S)-2-((8S,11S,14S)-8-((4-chloro-2-(4-(2-((dimethylamino)methyl)-1-methyl-1H-imidazol-5-yl)phenoxy)benzyl)amino)-14-(4-chlorobenzyl)-11-(methoxymethyl)-2,2,13-trimethyl-4,9,12-trioxo-3-oxa-5,10,13-triazahexadecan-16-amido)cyclohexyl)(methyl)amino)-4-oxobutanoic acid, 0.845 mM, 45.0 °C), `COC[C@@H]1NC(=O)[C@H](CCNC(=O)OC(C)(C)C)N(Cc2ccc(Cl)cc2Oc2ccc(-c3cnc(CN(C)C)n3C)cc2)C(=O)C[C@@H](Cc2ccccc2)C(=O)N(C)[C@H]2CCCC[C@@H]2NC(=O)C[C@H](Cc2ccc(Cl)cc2)N(C)C1=O` had a ring closure, isolated yield of 59.6%.

Turning to `COC[C@@H]1NC(=O)[C@H](C)N(Cc2ccc(Cl)cc2Oc2ccc(-c3cnc(CN(C)C)n3C)cc2)C(=O)C[C@@H](Cc2ccccc2)C(=O)N(C)C2CC2NC(=O)C[C@H](Cc2ccc(Cl)cc2)N(C)C1=O.O=C(O)C(F)(F)F` (mixture of isomers) [Compound 147, (5S,8S,11S,15R)-15-benzyl-12-(4-chloro-2-(4-(2-((dimethylamino)methyl)-1-methyl-1H-imidazol-5-yl)phenoxy)benzyl)-5-(4-chlorobenzyl)-8-(methoxymethyl)-6,11,17-trimethyl-2,6,9,12,17-pentaazabicyclo[16.1.0]nonadecane-3,7,10,13,16-pentaone trifluoroacetate], on human PCSK9, the Max % inhibition was determined as 104.16% and the IC50 (commonly the point on the concentration scale where inhibition reaches its midpoint) worked out at 3.7 nM. Moreover, the ring closure, isolated yield in data set [1] (from (3R)-3-benzyl-4-((2-((S)-3-((S)-2-((S)-2-((4-chloro-2-(4-(2-((dimethylamino)methyl)-1-methyl-1H-imidazol-5-yl)phenoxy)benzyl)amino)propanamido)-3-methoxy-N-methylpropanamido)-4-(4-chlorophenyl)butanamido)cyclopropyl)(methyl)amino)-4-oxobutanoic acid?, 45.0 °C) is 19%.

As for `CCc1ccc(CN2C(=O)C[C@@H](Cc3ccccc3)C(=O)N(C)[C@@H](C)CNC(=O)C[C@H](Cc3ccc(Cl)cc3)N(C)C(=O)[C@H](COC)NC(=O)[C@@H]2CCF)c(Oc2ccc(-c3cnc(CN4CCCC4)n3C)cc2)c1` [Compound 26, (2S,5S,8S,13S,16R)-16-benzyl-8-(4-chlorobenzyl)-1-(4-ethyl-2-(4-(1-methyl-2-(pyrrolidin-1-ylmethyl)-1H-imidazol-5-yl)phenoxy)benzyl)-2-(2-fluoroethyl)-5-(methoxymethyl)-7,13,14-trimethyl-1,4,7,11,14-pentaazacyclooctadecane-3,6,10,15,18-pentaone], at human PCSK9, the Max % inhibition was found to be 104.11% and the IC50 was determined as 2.4 nM. Besides, the ring closure, isolated yield in data set [1] (from (3S,6S,9S,14S,17R)-17-benzyl-9-(4-chlorobenzyl)-1-(4-ethyl-2-(4-(1-methyl-2-(pyrrolidin-1-ylmethyl)-1H-imidazol-5-yl)phenoxy)phenyl)-3-(2-fluoroethyl)-6-(methoxymethyl)-8,14,15-trimethyl-4,7,11,16-tetraoxo-2,5,8,12,15-pentaazanonadecan-19-oic acid, 0.238 mM, 39.0 °C) is 47%.

Regarding `C=CC[C@@H]1CC(=O)N(Cc2ccc(Cl)cc2Oc2ccc(-c3cnc(CN(C)C)n3C)cc2)[C@@H](C)C(=O)N[C@@H](COC)C(=O)N(C)[C@@H](Cc2ccc(Cl)cc2)CC(=O)NC[C@H](C)N(C)C1=O` [Compound 44, (2S,5S,8S,13S,16R)-16-allyl-1-(4-chloro-2-(4-(2-((dimethylamino)methyl)-1-methyl-1H-imidazol-5-yl)phenoxy)benzyl)-8-(4-chlorobenzyl)-5-(methoxymethyl)-2,7,13,14-tetramethyl-1,4,7,11,14-pentaaza cyclooctadecane-3,6,10,15,18-pentaone], on human PCSK9, the Max % inhibition came out at 102.15% and the IC50 was determined as 2.6 nM. In data set [1] (from (3S,6S,9S,14S,17R)-17-allyl-1-(4-chloro-2-(4-(2-((dimethylamino)methyl)-1-methyl-1H-imidazol-5-yl)phenoxy)phenyl)-9-(4-chlorobenzyl)-6-(methoxymethyl)-3,8,14,15-tetramethyl-4,7,11,16-tetraoxo-2,5,8,12,15-pentaazanonadecan-19-oic acid, 45.0 °C), this compound displayed a ring closure, isolated yield of 26%.

In the case of `COC[C@@H]1NC(=O)[C@H](CCCN2CCCC2=O)N(Cc2ccc(Cl)cc2Oc2ccc(-c3cnc(CN(C)C)n3C)cc2)C(=O)C[C@@H](Cc2ccccc2)C(=O)N(C)[C@H]2CCCC[C@@H]2NC(=O)C[C@H](Cc2ccc(Cl)cc2)N(C)C1=O` [Compound 296, (4S,7S,10S,14R,16aS,20aS)-14-benzyl-11-(4-chloro-2-(4-(2-((dimethylamino)-methyl)-1-methyl-1H-imidazol-5-yl)phenoxy)benzyl)-4-(4-chlorobenzyl)-7-(methoxymethyl)-5,16-dimethyl-10-(3-(2-oxopyrrolidin-1-yl)propyl)hexadecahydrobenzo[l][1,4,7,11,14]penta-azacyclooctadecine-2,6,9,12,15(3H)-pentaone], on human PCSK9, the Max % inhibition came out at 98.03% and the IC50 stood at 1.2 nM.

Turning to `COC[C@@H]1NC(=O)[C@H](C)N(Cc2ccc(Cl)cc2Oc2c(F)cc(-c3cnc(CN4CCCC4)n3C)cc2F)C(=O)C[C@@H](Cc2ccccc2)C(=O)N(C)[C@@H](C)CNC(=O)C[C@H](Cc2ccc(Cl)cc2)N(C)C1=O` [Compound 298, (2S,5S,8S,13S,16R)-16-benzyl-1-(4-chloro-2-(2,6-difluoro-4-(1-methyl-2-(pyrrolidin-1-ylmethyl)-1H-imidazol-5-yl)phenoxy)benzyl)-8-(4-chlorobenzyl)-5-(methoxymethyl)-2,7,13,14-tetramethyl-1,4,7,11,14-pentaazacyclooctadecane-3,6,10,15,18-pentaone], on human PCSK9, the Max % inhibition is on record as 99.00% and the IC50 stood at 2.01 nM.

Turning to `COC[C@@H]1NC(=O)[C@H](C)N(Cc2ccc(Cl)cc2Oc2ccc(-c3cnc(CN4CCCC4)n3C)c(F)c2F)C(=O)C[C@@H](Cc2ccccc2)C(=O)N(C)[C@@H](C)CNC(=O)C[C@H](Cc2ccc(Cl)cc2)N(C)C1=O` [Compound 299, (2S,5S,8S,13S,16R)-16-benzyl-1-(4-chloro-2-(2,3-difluoro-4-(1-methyl-2-(pyrrolidin-1-ylmethyl)-1H-imidazol-5-yl)phenoxy)benzyl)-8-(4-chlorobenzyl)-5-(methoxymethyl)-2,7,13,14-tetramethyl-1,4,7,11,14-pentaazacyclooctadecane-3,6,10,15,18-pentaone], on human PCSK9, the Max % inhibition is 95.40% and the IC50 was 3.3 nM.

Turning to `CCn1c(-c2ccc(Oc3cc(Cl)ccc3CN3C(=O)C[C@@H](Cc4ccccc4)C(=O)N(C)[C@@H](C)CNC(=O)C[C@H](Cc4ccc(Cl)cc4)N(C)C(=O)[C@H](COC)NC(=O)[C@@H]3C)cc2)cnc1CN1CCCC1` [Compound 300, (2S,5S,8S,13S,16R)-16-benzyl-1-(4-chloro-2-(4-(1-ethyl-2-(pyrrolidin-1-ylmethyl)-1H-imidazol-5-yl)phenoxy)benzyl)-8-(4-chlorobenzyl)-5-(methoxymethyl)-2,7,13,14-tetramethyl-1,4,7,11,14-pentaazacyclooctadecane-3,6,10,15,18-pentaone], at human PCSK9, the Max % inhibition is 80.60% and the IC50 stood at 2.1 nM.

With `COC[C@@H]1NC(=O)[C@H](C)N(Cc2ccc(Cl)cc2Oc2ccc(-c3cncc(CN4CCCC4)c3C)cc2)C(=O)C[C@@H](Cc2ccccc2)C(=O)N(C)[C@@H](C)CNC(=O)C[C@H](Cc2ccc(Cl)cc2)N(C)C1=O` [Compound 301, (2S,5S,8S,13S,16R)-16-benzyl-1-(4-chloro-2-(4-(4-methyl-5-(pyrrolidin-1-ylmethyl)pyridin-3-yl)phenoxy)benzyl)-8-(4-chlorobenzyl)-5-(methoxymethyl)-2,7,13,14-tetramethyl-1,4,7,11,14-pentaazacyclooctadecane-3,6,10,15,18-pentaone], at human PCSK9, the Max % inhibition worked out at 54.20% and the IC50 was determined as 3.9 nM.

Consider `COC[C@@H]1NC(=O)[C@H](C)N(Cc2ccc(Cl)cc2Oc2ccc(-c3cnc4c(CN5CCCC5)cccn34)cc2)C(=O)C[C@@H](Cc2ccccc2)C(=O)N(C)[C@@H](C)CNC(=O)C[C@H](Cc2ccc(Cl)cc2)N(C)C1=O` [Compound 302], for which, on human PCSK9, the Max % inhibition is 54.00% and the IC50 is 3.5 nM.

Consider `COC[C@@H]1NC(=O)[C@H](C)N(Cc2ccc(Cl)cc2Oc2ccc(-c3cnc(CN4CCCC4)n3CCF)cc2)C(=O)C[C@@H](Cc2ccccc2)C(=O)N(C)[C@@H](C)CNC(=O)C[C@H](Cc2ccc(Cl)cc2)N(C)C1=O` [Compound 303, (2S,5S,8S,13S,16R)-16-benzyl-1-(4-chloro-2-(4-(1-(2-fluoroethyl)-2-(pyrrolidin-1-ylmethyl)-1H-imidazol-5-yl)phenoxy)benzyl)-8-(4-chlorobenzyl)-5-(methoxymethyl)-2,7,13,14-tetramethyl-1,4,7,11,14-pentaazacyclooctadecane-3,6,10,15,18-pentaone], for which, at human PCSK9, the Max % inhibition is reported as 52.60% and the IC50 is 2.9 nM.

As to `COC[C@@H]1NC(=O)[C@H](CCCN)N(Cc2ccc(Cl)cc2Oc2ccc(-c3cnc(CN(C)C)n3C)cc2)C(=O)C[C@@H](Cc2ccccc2)C(=O)N(C)[C@H]2CCCC[C@@H]2NC(=O)C[C@H](Cc2ccc(Cl)cc2)N(C)C1=O` [Compound 304, (4S,7S,10S,14R,16aS,20aS)-10-(3-aminopropyl)-14-benzyl-11-(4-chloro-2-(4-(2-((dimethylamino)methyl)-1-methyl-1H-imidazol-5-yl)phenoxy)benzyl)-4-(4-chlorobenzyl)-7-(methoxymethyl)-5,16-dimethylhexadecahydrobenzo[l][1,4,7,11,14]pentaazacyclooctadecine-2,6,9,12,15(3H)-pentaone], on human PCSK9, the Max % inhibition came to 88.80% and the IC50 was determined as 0.6 nM.
